From patent US20260262643A1, “HERBICIDAL BENZOXAZINES” (FMC CORPORATION, priority 2022, published 2026)

What was measured:
barnyardgrass [1] = test: Test C preemergence; assay type: in vivo, Echinochloa crusgalli
Procedure, shortened: (§1)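 Visual injury score, 0–100 (100 = complete control), taken 10 days after treatment relative to untreated controls. Pre: directed spray onto soil over sown seeds. Post: foliar spray at one- to two-leaf stage, 2–10 cm. Solvent/surfactant formulation; loam–sand soil; greenhouse.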

blackgrass [2] = test: Test C preemergence; assay type: in vivo, Alopecurus myosuroides
Procedure, shortened: as §1

corn [3] = test: Test C preemergence; assay type: in vivo, Zea mays
Procedure, shortened: as §1

foxtail, giant [4] = test: Test C preemergence; assay type: in vivo, Setaria faberi
Procedure, shortened: as §1

kochia [5] = test: Test C preemergence; assay type: in vivo, Bassia scoparia
Procedure, shortened: as §1

oat, wild [6] = test: Test C preemergence; assay type: in vivo, Avena fatua
Procedure, shortened: as §1

pigweed, palmer [7] = test: Test C preemergence; assay type: in vivo, Amaranthus palmeri
Procedure, shortened: as §1

ragweed [8] = test: Test C preemergence; assay type: in vivo, Ambrosia artemisiifolia
Procedure, shortened: as §1

ryegrass, Italian [9] = test: Test C preemergence; assay type: in vivo, Lolium multiflorum
Procedure, shortened: as §1

soybean [10] = test: Test C preemergence; assay type: in vivo, Glycine max
Procedure, shortened: as §1

wheat [11] = test: Test C preemergence; assay type: in vivo, Triticum aestivum
Procedure, shortened: as §1

barnyardgrass [12] = test: Test C postemergence; assay type: in vivo, Echinochloa crusgalli; settings: 10 days, 0 to 100 scale (0 no effect, 100 complete control)
Procedure, shortened: as §1

blackgrass [13] = test: Test C postemergence; assay type: in vivo, Alopecurus myosuroides; settings: 10 days, 0 to 100 scale (0 no effect, 100 complete control)
Procedure, shortened: as §1

corn [14] = test: Test C postemergence; assay type: in vivo, Zea mays; settings: 10 days, 0 to 100 scale (0 no effect, 100 complete control)
Procedure, shortened: as §1

foxtail, giant [15] = test: Test C postemergence; assay type: in vivo, Setaria faberi; settings: 10 days, 0 to 100 scale (0 no effect, 100 complete control)
Procedure, shortened: as §1

kochia [16] = test: Test C postemergence; assay type: in vivo, Bassia scoparia; settings: 10 days, 0 to 100 scale (0 no effect, 100 complete control)
Procedure, shortened: as §1

oat, wild [17] = test: Test C postemergence; assay type: in vivo, Avena fatua; settings: 10 days, 0 to 100 scale (0 no effect, 100 complete control)
Procedure, shortened: as §1

pigweed, palmer [18] = test: Test C postemergence; assay type: in vivo, Amaranthus palmeri; settings: 10 days, 0 to 100 scale (0 no effect, 100 complete control)
Procedure, shortened: as §1

ragweed [19] = test: Test C postemergence; assay type: in vivo, Ambrosia artemisiifolia; settings: 10 days, 0 to 100 scale (0 no effect, 100 complete control)
Procedure, shortened: as §1

ryegrass, Italian [20] = test: Test C postemergence; assay type: in vivo, Lolium multiflorum; settings: 10 days, 0 to 100 scale (0 no effect, 100 complete control)
Procedure, shortened: as §1

soybean [21] = test: Test C postemergence; assay type: in vivo, Glycine max; settings: 10 days, 0 to 100 scale (0 no effect, 100 complete control)
Procedure, shortened: as §1

wheat [22] = test: Test C postemergence; assay type: in vivo, Triticum aestivum; settings: 10 days, 0 to 100 scale (0 no effect, 100 complete control)
Procedure, shortened: as §1

galium = test: Test C postemergence; assay type: in vivo, Galium aparine; settings: 10 days, 0 to 100 scale (0 no effect, 100 complete control)
Procedure, shortened: as §1

horseweed = test: Test C postemergence; assay type: in vivo, Erigeron canadensis; settings: 10 days, 0 to 100 scale (0 no effect, 100 complete control)
Procedure, shortened: as §1

barnyardgrass [23] = test: Test D flooded paddy test; assay type: in vivo, Echinochloa crus-galli; settings: 250 g ai/ha, applied to paddy water, visual rating after 13 to 14 days, scale 0 to 100 (0 no effect, 100 complete control)
Procedure, shortened: (§2)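 2-leaf plants; flood 3 cm above soil; compound dosed into paddy water; greenhouse 13–14 d; visual rating vs controls, 0–100 (100 = complete control); dash = not tested.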

ducksalad = test: Test D flooded paddy test; assay type: in vivo, Heteranthera limosa; settings: 250 g ai/ha, applied to paddy water, visual rating after 13 to 14 days, scale 0 to 100 (0 no effect, 100 complete control)
Procedure, shortened: as §2

rice = test: Test D flooded paddy test; assay type: in vivo, Oryza sativa; settings: 250 g ai/ha, applied to paddy water, visual rating after 13 to 14 days, scale 0 to 100 (0 no effect, 100 complete control)
Procedure, shortened: as §2

sedge, umbrella = test: Test D flooded paddy test; assay type: in vivo, Cyperus difformis; settings: 250 g ai/ha, applied to paddy water, visual rating after 13 to 14 days, scale 0 to 100 (0 no effect, 100 complete control)
Procedure, shortened: as §2

[24] = 500 g ai/ha, preemergence, 0 to 100 scale (0 no effect, 100 complete control)
[25] = Preemergence, 125 g ai/ha, 0 to 100 scale, 0 no effect, 100 complete control

CCc1ncn(-c2cccc(C(=O)N3CC(C(F)(F)F)Oc4c(C)cccc43)c2)n1 (stereo not shown) [Compound 344]
Barnyardgrass plant response rating (barnyardgrass [1]; [24]): 100 | Plant response rating, Barnyardgrass (barnyardgrass [1]; [25]): 80 | Blackgrass plant response rating (blackgrass [2]; [24]): 100 | Plant response rating, Blackgrass (blackgrass [2]; [25]): 90 | Corn plant response rating (corn [3]; [24]): 30 | Plant response rating, Corn (corn [3]; [25]): 20 | Foxtail, Giant plant response rating (foxtail, giant [4]; [24]): 100 | Plant response rating, Foxtail, Giant (foxtail, giant [4]; [25]): 100 | Kochia plant response rating (kochia [5]; [24]): 100 | Plant response rating, Kochia (kochia [5]; [25]): 60 | Oat, Wild plant response rating (oat, wild [6]; [24]): 90 | Plant response rating, Oat, Wild (oat, wild [6]; [25]): 0 | Pigweed, Palmer plant response rating (pigweed, palmer [7]; [24]): 100 | Plant response rating, Pigweed, Palmer (pigweed, palmer [7]; [25]): 90 | Ragweed plant response rating (ragweed [8]; [24]): 50 | Plant response rating, Ragweed (ragweed [8]; [25]): 0 | Ryegrass, Italian plant response rating (ryegrass, Italian [9]; [24]): 100 | Plant response rating, Ryegrass, Italian (ryegrass, Italian [9]; [25]): 90 | Soybean plant response rating (soybean [10]; [24]): 50 | Plant response rating, Soybean (soybean [10]; [25]): 0 | Wheat plant response rating (wheat [11]; [24]): 80 | Plant response rating, Wheat (wheat [11]; [25]): 40 | Plant response rating, Barnyardgrass (barnyardgrass [12]; 500 g ai/ha, postemergence): 70 | Plant response rating, Barnyardgrass (barnyardgrass [12]; Postemergence, 125 g ai/ha): 40 | Plant response rating, Blackgrass (blackgrass [13]; 500 g ai/ha, postemergence): 90 | Plant response rating, Blackgrass (blackgrass [13]; Postemergence, 125 g ai/ha): 80 | Plant response rating, Corn (corn [14]; 500 g ai/ha, postemergence): 90 | Plant response rating, Corn (corn [14]; Postemergence, 125 g ai/ha): 30 | Plant response rating, Foxtail, Giant (foxtail, giant [15]; 500 g ai/ha, postemergence): 90 | Plant response rating, Foxtail, Giant (foxtail, giant [15]; Postemergence, 125 g ai/ha): 70 | Plant response rating, Kochia (kochia [16]; 500 g ai/ha, postemergence): 80 | Plant response rating, Kochia (kochia [16]; Postemergence, 125 g ai/ha): 70 | Plant response rating, Oat, Wild (oat, wild [17]; 500 g ai/ha, postemergence): 90 | Plant response rating, Oat, Wild (oat, wild [17]; Postemergence, 125 g ai/ha): 60 | Plant response rating, Pigweed, Palmer (pigweed, palmer [18]; 500 g ai/ha, postemergence): 40 | Plant response rating, Pigweed, Palmer (pigweed, palmer [18]; Postemergence, 125 g ai/ha): 20 | Plant response rating, Ragweed (ragweed [19]; 500 g ai/ha, postemergence): 70 | Plant response rating, Ragweed (ragweed [19]; Postemergence, 125 g ai/ha): 70 | Plant response rating, Ryegrass, Italian (ryegrass, Italian [20]; 500 g ai/ha, postemergence): 100 | Plant response rating, Ryegrass, Italian (ryegrass, Italian [20]; Postemergence, 125 g ai/ha): 80 | Plant response rating, Soybean (soybean [21]; 500 g ai/ha, postemergence): 100 | Plant response rating, Soybean (soybean [21]; Postemergence, 125 g ai/ha): 80 | Plant response rating, Wheat (wheat [22]; 500 g ai/ha, postemergence): 80 | Plant response rating, Wheat (wheat [22]; Postemergence, 125 g ai/ha): 30 | Plant response rating, Galium (galium; 500 g ai/ha, postemergence): 100 | Plant response rating, Galium (galium; Postemergence, 125 g ai/ha): 90 | Plant response rating, Horseweed (horseweed; 500 g ai/ha, postemergence): 30 | Plant response rating, Horseweed (horseweed; Postemergence, 125 g ai/ha): 30 | Plant response rating, Barnyardgrass (Flood) (barnyardgrass [23]): 25 | Plant response rating, Ducksalad (Flood) (ducksalad): 30 | Plant response rating, Rice (Flood) (rice): 0 | Plant response rating, Sedge, Umbrella (Flood) (sedge, umbrella): 70
